Laboratory results taken from US20130042333A1, “MARKERS FOR CANCER PROGNOSIS AND THERAPY AND METHODS OF USE” (priority 2011, published 2013).

How the values were obtained:
[1] = tested on: HBCx-24 breast tumor xenograft; assay: Tumor regression-regrowth assay, HBCx-24 xenograft; type: in vivo, human tumor in Swiss nude mice; conditions: Doc 20 mg/kg, x2 cycles
From the text: (§1) Tumor xenografts were generated by direct subcutaneous grafting into immunodeficient mice of human tumor surgical samples with informed written consent of the patients and maintained by serial transplantation. […] They are thus clinically relevant tumor models, as opposed to xenografts produced from tumor cell lines that have been obtained by in vitro culture and often passaged for many years (Fiebig, H. H. et al. Eur J Cancer 40, 802-820, 2004; Marangoni E., Vincent-Salomon A., Auger N. et al. Clin Cancer Res. 2007 Jul. 1; 13:3989-98).
(§2) Chemotherapeutic drugs were administered by intraperitoneal route according to the following doses and schedules: adriamycin, 2 mg/kg, q3wk (Doxorubicin®, Teva Pharmaceuticals, France) and Cyclophosphamide, 100 mg/kg, q3wk (Endoxan®, Baxter, France). Irinotecan (Campto®, Pfizer Holding France), 50 mg/kg, q4dx4. Etoposide 12 mg/kg, qdx3. Ifosfamide 90 mg/kg, qdx3. bPARP inhibitor (AZD2281, Sequoia Research Products, UK) at 50 mg/kg (ip; qdx14). A second treatment cycle was performed with PARP inhibitor at 50 mg/kg (ip qdx5) during the nodule phase. Other pharmacological inhibitors are tested and administrated at the nodule phase: JAK1/2 Inhibitor (CP-690550) at 15 mg/kg (po qdx14), Epigallocatechin gallate (ECGC) (Sequoia Research Products, UK) at 30 mg/kg (ip qdx28), HDAC inhibitor (Trichostatine A), Retinoic acid at 50 mg/kg (ip qdx28) (Sigma-Aldrich, France). Breast tumor xenograft models were transplanted into 5-week old female Swiss nude mice, as described above, one tumor being transplanted into 5-10 recipients. When tumors reached a volume of 60-250 mm3, mice were individually identified and randomly assigned to the control or treated groups (12 to 20 mice per group). Tumor volume was evaluated by measuring two perpendicular diameters of the tumor, with a calliper, biweekly during the treatment period and once a week during the follow-up period. The formula TV (mm3)=[length (mm)×width (mm)2]/2 was used, where the length and the width were the longest and the shortest diameters of the tumor, respectively. All animals were weighted biweekly during the treatment period and the follow-up period. Mice were ethically sacrificed when the tumor volume reached 2000 mm3 Individual tumor growth delays (TGD) is calculated as the time in days required for individual tumors to reach 3- to 5-fold the initial median tumor volume. The tumor growth delay index (TGDI) is calculated as the median growth delay in the treated group divided by the median growth delay in the control group. The percentage ratio between the mean tumor volume of a treated group (T) and the mean tumor volume of the control group (C) is calculated.
(§3) Tumors were collected from 5 independent mice at different time points: prior to treatment (=controls with volume<200 mm3); post-treatment residual tumors (=nodules with volume<32 mm3 until minimal palpation); recurrent tumors (=regrowth with volume>62.5 mm3) Tumors or nodules were processed for (1) FFPE (formalin-fixed paraffin-embedded) or for (2) snap frozen samples: samples were cut into 3-4 mm pieces (at least 3 fragments) and snap-frozen in liquid nitrogen, then transferred to −80° C. for storage. Samples were allocated for histology, microdissection and RNA analyses.
(§4) Three categories of responders were defined based on the TGDI and T/C values.

[2] = tested on: IC20DAN (a primary NSCLC tumor xenograft); assay: Tumor regression-regrowth assay, IC20DAN xenograft; type: in vivo, human tumor in immunodeficient mice; conditions: Doc 20 mg/kg, x1 cycle
From the text: as §1, §2, §3, §4

[3] = tested on: TC301 colorectal cancer xenograft; assay: Tumor regression-regrowth assay, TC301 xenograft; type: in vivo, human tumor in immunodeficient mice; conditions: I 40 mg/kg, x1 cycle
From the text: as §1
as §2, with “Irinotecan (Campto®, Pfizer Holding France), 50 mg/kg, q4dx4.” left out, “calculated. […]” for “calculated.”

[4] = tested on: 21 genes implicated in IFN/Stat pathway; assay: Real-time quantitative RT-PCR of the 21-gene IFN/Stat signature in tumor xenografts after chemotherapy; type: in vivo, human tumor in immunodeficient mice; conditions: colorectal tumor xenograft (TC301)
Protocol: Samples were allocated for histology, microdissection and RNA analyses.
Total RNA amount was measured using the Nanodrop (ND1000, ThermoFisher) and RNA quality was assessed with the Agilent 2100 Bioanalyzer onto RNA NanoChip (Agilent Technology, Massy, France). Three samples from each condition were pooled. Two μg of total RNA were reverse-transcribed with the First strand cDNA synthesis kit (Roche Applied Science, Switzerland) according to manufacturer's instructions. For the priming method, a combination of ¾ random hexamer primers and ¼ anchored-oligo(dT)18 primers was used to avoid 3′-prime bias in cDNAs. qPCR analyses of gene transcripts was done with 5 ng of RNA for each reaction. Three housekeeping genes were used as references for relative quantification of target genes expression. […]
Validation of the microarray gene and microRNA expression data was performed by qPCR using primers specific for human sequences (eg. non-cross-reactive with murine sequences). The effect of chemotherapy on the activation of 21 genes implicated in IFN/Stat pathway (IFIT1, IFITM1, IRF9, IFI6, IFI44, IFI44L, OAS1, OAS2, LAMP3, MX1, PARP9, PARP12, SAMD9, SAMD9L, BST2, DDX60, CLDN1, STAT1, STAT2, UBE2L6, ZNFX1) and two miRNA (miR-142-3p and miR150) was analyzed in responder versus non-responder tumor models. […]

[5] = tested on: ODA14 RAV glioma xenograft; assay: Tumor regression-regrowth assay, ODA14 RAV xenograft; type: in vivo, human tumor in immunodeficient mice; conditions: TMZ 42 mg/kg, x1 cycle
From the text: as §1, §2, §3, §4

[6] = tested on: SC61 small-cell lung cancer xenograft; assay: Tumor regression-regrowth assay, SC61 xenograft; type: in vivo, human tumor in immunodeficient mice; conditions: x1 cycle
From the text: as §1
Chemotherapeutic drugs were administered by intraperitoneal route according to the following doses and schedules: adriamycin, 2 mg/kg, q3wk (Doxorubicin®, Teva Pharmaceuticals, France) and Cyclophosphamide, 100 mg/kg, q3wk (Endoxan®, Baxter, France). Irinotecan (Campto®, Pfizer Holding France), 50 mg/kg, q4dx4. Etoposide 12 mg/kg, qdx3. Ifosfamide 90 mg/kg, qdx3. bPARP inhibitor (AZD2281, Sequoia Research Products, UK) at 50 mg/kg (ip; qdx14). A second treatment cycle was performed with PARP inhibitor at 50 mg/kg (ip qdx5) during the nodule phase. […] Tumor volume was evaluated by measuring two perpendicular diameters of the tumor, with a calliper, biweekly during the treatment period and once a week during the follow-up period. […] Mice were ethically sacrificed when the tumor volume reached 2000 mm3 Individual tumor growth delays (TGD) is calculated as the time in days required for individual tumors to reach 3- to 5-fold the initial median tumor volume. The tumor growth delay index (TGDI) is calculated as the median growth delay in the treated group divided by the median growth delay in the control group. The percentage ratio between the mean tumor volume of a treated group (T) and the mean tumor volume of the control group (C) is calculated. […]

[7] = tested on: HBCx-17 breast tumor xenograft; assay: Tumor regression-regrowth assay, HBCx-17 xenograft; type: in vivo, human tumor in Swiss nude mice; conditions: A/C 2/100 or Cap 540 mg/kg, x2 cycles
From the text: as §1, §2, §3, §4

[8] = tested on: HBCx-39 breast tumor xenograft; assay: Tumor regression-regrowth assay, HBCx-39 xenograft; type: in vivo, human tumor in Swiss nude mice; conditions: Cap 540 mg/kg, x2 cycles
From the text: as §1, §2, §3, §4

[9] = tested on: TC71 colorectal tumor xenograft; assay: Tumor regression-regrowth assay, TC71 xenograft; type: in vivo, human tumor in immunodeficient mice; conditions: x1 cycle, mg/kg: Ox 10, Cap 540, I 50, B 5, Cet 5
From the text: as §1, §2, §3, §4

[10] = tested on: TC305 colorectal tumor xenograft; assay: Tumor regression-regrowth assay, TC305 xenograft; type: in vivo, human tumor in immunodeficient mice; conditions: x1 cycle, mg/kg: Ox 10, Cap 540, I 50, B 5, Cet 5
From the text: as §1, §2, §3, §4

[11] = tested on: HBCx-6 breast cancer xenograft; assay: Tumor regression-regrowth assay, HBCx-6 xenograft; type: in vivo, human tumor in Swiss nude mice; conditions: HBCx-6 combination study; A/C 2/100 mg/kg; AZD2281 50 mg/kg i.p.
From the text: as §1
Chemotherapeutic drugs were administered by intraperitoneal route according to the following doses and schedules: adriamycin, 2 mg/kg, q3wk (Doxorubicin®, Teva Pharmaceuticals, France) and Cyclophosphamide, 100 mg/kg, q3wk (Endoxan®, Baxter, France). […] Tumor volume was evaluated by measuring two perpendicular diameters of the tumor, with a calliper, biweekly during the treatment period and once a week during the follow-up period. […] Mice were ethically sacrificed when the tumor volume reached 2000 mm3 Individual tumor growth delays (TGD) is calculated as the time in days required for individual tumors to reach 3- to 5-fold the initial median tumor volume. The tumor growth delay index (TGDI) is calculated as the median growth delay in the treated group divided by the median growth delay in the control group. […]

[12] = CDDP 2/12 or VP16/IFO 12/90 mg/kg

CC(=O)O[C@@]12CO[C@@H]1C[C@H](O)[C@@]1(C)C(=O)[C@H](O)C3=C(C)[C@@H](OC(=O)[C@H](O)[C@@H](NC(=O)OC(C)(C)C)c4ccccc4)C[C@@](O)([C@@H](OC(=O)c4ccccc4)[C@H]21)C3(C)C [Doc, docetaxel]
% Nodules [1]: 70% | % Tumor Relapse [1]: 71.4% | Median Nodule Apparition Time [1]: 10 | Median Time of Relapse [1]: 14 | T/C % D21 [1]: 21% | TGDI [1]: 2.39 | median TGD × 5 [1]: 35.44 days | % Nodules [2]: 60% | % Tumor Relapse [2]: 100% | Median Nodule Apparition Time [2]: 11 | Median Time of Relapse [2]: 9 | TGDI [2]: >4.8 | median TGD × 5 [2]: >24 days

CCc1c2c(nc3ccc(OC(=O)N4CCC(N5CCCCC5)CC4)cc13)-c1cc3c(c(=O)n1C2)COC(=O)[C@]3(O)CC [I, Irinotecan]
% Nodules [3]: 43% | % Tumor Relapse [3]: 100% | Median Nodule Apparition Time [3]: 26 | Median Time of Relapse [3]: 18 | expression of IFN/Stat gene signature in residual nodules (qPCR) [4]: gene expression was globally increased

Cn1nnc2c(C(N)=O)ncn2c1=O [TMZ]
% Nodules [5]: 100% | % Tumor Relapse [5]: 100% | Median Nodule Apparition Time [5]: 7 | Median Time of Relapse [5]: 21 | TGDI [5]: 6.66 | median TGD × 5 [5]: 46.62 days

[NH2][Pt]([NH2])([Cl])[Cl] [CDDP, cisplatin]
% Tumor Relapse ([6]; CDDP 2/12 mg/kg): 100% | % Nodules [6, 12]: 23% | Median Nodule Apparition Time [6, 12]: 13

CCCCCOC(=O)Nc1nc(=O)n([C@@H]2O[C@H](C)[C@@H](O)[C@H]2O)cc1F [Cap, capecitabine]
% Nodules [7]: 30% | % Tumor Relapse [7]: 100% | Median Nodule Apparition Time [7]: 50 | Median Time of Relapse [7]: 4 | T/C % D21 [7]: 48% | T/C % D42 [7]: 12% | TGDI [7]: >2.81 | median TGD × 5 [7]: >64 days | % Nodules [8]: 56% | % Tumor Relapse [8]: 100% | Median Nodule Apparition Time [8]: 17 | Median Time of Relapse [8]: 63 | T/C % D21 [8]: 11% | TGDI [8]: >4.54 | median TGD × 5 [8]: >84 days | % Nodules [9]: 100% | % Tumor Relapse [9]: 100% | Median Nodule Apparition Time [9]: 22 | Median Time of Relapse [9]: 36 | T/C % D21 [9]: 5% | TGDI [9]: 5.11 | median TGD × 5 [9]: 66.48 days | % Nodules [10]: 33% | % Tumor Relapse [10]: 100% | Median Nodule Apparition Time [10]: 7 | Median Time of Relapse [10]: 11 | T/C % D21 [10]: 40% | TGDI [10]: 1.74 | median TGD × 5 [10]: 27.87 days

O=C(c1cc(Cc2n[nH]c(=O)c3ccccc23)ccc1F)N1CCN(C(=O)C2CC2)CC1 [AZD2281]
anti-tumor activity [11]: significant anti-tumor activity | tumors showing complete tumor regression [11]: 2 out of 7
